What was measured:
Assay in all cases: In vitro MMP inhibition, IC50 determination (fluorogenic substrate I)
Type in all cases: biochemical
Conditions in all cases: value outside parentheses (Ki in parenthesis)
Human recombinant MMP-13 = molecular target: T1, Human recombinant MMP-13 (Homo sapiens, UniProt P45452)
T1 construct: made in house; host or cells: baculovirus / insect cells
Procedure, shortened: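 Fluorescence at 415 nm (excitation 328 nm) reports Gly-Leu cleavage of 4 μM quenched methoxycoumarin peptide substrate I. Human recombinant MMP-13, activated by trypsin or APMA, was incubated at room temperature with varied inhibitor concentrations in pH 7.5 Tris/NaCl/CaCl2 buffer; IC50 derived from reduced fluorescence.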

Human recombinant MMP-9 = molecular target: T2, Human recombinant MMP-9 (Homo sapiens, UniProt P14780)
T2 construct: made in house; host or cells: MMP-9-transfected HT1080 cells (spent media)
T2 sequence (P14780 107-707 limits assumed): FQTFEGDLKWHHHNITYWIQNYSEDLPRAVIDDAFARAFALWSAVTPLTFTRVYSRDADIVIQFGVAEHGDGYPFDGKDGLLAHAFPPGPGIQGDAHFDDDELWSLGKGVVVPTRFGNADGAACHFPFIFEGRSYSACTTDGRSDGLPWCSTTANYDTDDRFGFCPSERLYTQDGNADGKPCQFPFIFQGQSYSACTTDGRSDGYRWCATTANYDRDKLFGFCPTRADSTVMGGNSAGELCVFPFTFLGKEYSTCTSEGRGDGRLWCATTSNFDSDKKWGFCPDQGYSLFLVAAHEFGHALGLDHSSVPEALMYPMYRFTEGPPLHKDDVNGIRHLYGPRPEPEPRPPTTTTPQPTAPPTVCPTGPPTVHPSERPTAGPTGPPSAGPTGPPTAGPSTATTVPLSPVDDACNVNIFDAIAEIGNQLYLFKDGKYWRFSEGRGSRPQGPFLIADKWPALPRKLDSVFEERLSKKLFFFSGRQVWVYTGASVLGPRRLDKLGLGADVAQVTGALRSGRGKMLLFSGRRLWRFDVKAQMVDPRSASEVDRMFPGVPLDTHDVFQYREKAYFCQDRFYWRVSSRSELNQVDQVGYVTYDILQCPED
Procedure, shortened: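 Reduction in fluorescence (328 nm excitation, 415 nm emission) from cleavage of 4 μM quenched peptide substrate I, measured at room temperature against inhibitor concentration, gave IC50. Enzyme: trypsin- or APMA-activated MMP-9 purified from transfected HT1080 medium; buffer 100 mM Tris, 100 mM NaCl, 10 mM CaCl2, pH 7.5.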

Human recombinant MMP-14 = molecular target: T3, Human recombinant MMP-14 (Homo sapiens, UniProt P50281)
T3 construct: The catalytic domain enzyme was expressed in E. coli inclusion bodies, solubilized in urea; made in house
Procedure, shortened: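 IC50 came from reduced fluorescence (ex 328 nm, em 415 nm) as inhibitor concentration rose, with 4 μM substrate I cleaved at Gly-Leu. Room-temperature incubation in pH 7.5 Tris buffer with 10 mM CaCl2; the E. coli-expressed, refolded MMP-14 catalytic domain was activated with trypsin or APMA.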

Human recombinant MMP-2 = molecular target: T4, Human recombinant MMP-2 (Homo sapiens, UniProt P08253)
T4 construct: made in house; host or cells: MMP-2-transfected p2AHT2 cells
T4 sequence (P08253 110-660): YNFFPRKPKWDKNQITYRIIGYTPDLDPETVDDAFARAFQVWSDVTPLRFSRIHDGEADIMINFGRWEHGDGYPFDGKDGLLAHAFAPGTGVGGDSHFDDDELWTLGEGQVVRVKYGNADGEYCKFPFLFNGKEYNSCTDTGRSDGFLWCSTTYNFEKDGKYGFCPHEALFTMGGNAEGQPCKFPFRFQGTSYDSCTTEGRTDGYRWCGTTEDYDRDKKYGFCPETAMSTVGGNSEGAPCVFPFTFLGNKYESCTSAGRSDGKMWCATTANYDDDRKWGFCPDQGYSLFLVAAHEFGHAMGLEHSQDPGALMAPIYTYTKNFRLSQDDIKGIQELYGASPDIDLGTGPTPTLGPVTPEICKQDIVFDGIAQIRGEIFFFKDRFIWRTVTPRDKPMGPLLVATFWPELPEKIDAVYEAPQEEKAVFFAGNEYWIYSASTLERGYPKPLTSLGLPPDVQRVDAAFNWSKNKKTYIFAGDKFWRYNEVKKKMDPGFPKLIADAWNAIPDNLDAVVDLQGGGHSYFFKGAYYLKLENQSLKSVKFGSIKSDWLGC
Procedure, shortened: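 IC50 was derived from the concentration-dependent fall in fluorescence (ex 328, em 415 nm) on Gly-Leu cleavage of 4 μM MCA/Dpa-quenched substrate I. Assays ran at room temperature in pH 7.5 Tris/NaCl/CaCl2/Brij buffer with MMP-2 activated by trypsin or APMA; inhibitors were diluted from 1% DMSO stocks.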

Human recombinant MMP-1 = molecular target: T5, Human recombinant MMP-1 (Homo sapiens, UniProt P03956)
T5 construct: made in house; host or cells: MMP-1-transfected HT-1080 cells (spent media)
T5 sequence (P03956 100-469): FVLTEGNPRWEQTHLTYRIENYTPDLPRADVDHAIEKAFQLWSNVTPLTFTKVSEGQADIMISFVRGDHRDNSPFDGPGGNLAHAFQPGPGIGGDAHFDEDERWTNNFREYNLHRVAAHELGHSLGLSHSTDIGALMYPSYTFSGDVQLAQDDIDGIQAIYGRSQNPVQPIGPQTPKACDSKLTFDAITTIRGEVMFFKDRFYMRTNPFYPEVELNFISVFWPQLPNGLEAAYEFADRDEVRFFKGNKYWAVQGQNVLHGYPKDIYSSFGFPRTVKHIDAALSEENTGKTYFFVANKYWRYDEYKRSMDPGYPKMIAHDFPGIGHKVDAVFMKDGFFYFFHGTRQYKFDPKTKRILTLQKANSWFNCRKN
Procedure, shortened: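 Inhibitor dilutions were made in 100 mM Tris-HCl/100 mM NaCl/10 mM CaCl2 buffer, pH 7.5, and incubated at room temperature with activated proenzyme (from transfected HT-1080 media; APMA or trypsin) and 4 μM quenched methoxycoumarin peptide substrate. Loss of 415 nm fluorescence (328 nm excitation) against concentration gave IC50.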

SMILES	IC50 (Human recombinant MMP-13) [nM]	IC50 (Human recombinant MMP-9) [nM]	IC50 (Human recombinant MMP-14) [nM]	IC50 (Human recombinant MMP-2) [nM]	IC50 (Human recombinant MMP-1) [nM]
CCCCOc1ccc(C(=O)NCCCOc2ccc(S(=O)(=O)C3(C(=O)NO)CCOCC3)cc2)cc1 [Example 364]	1.8	> 10000	> 10000	250	> 10000
COC(=O)c1ccc(C(=O)NCCCOc2ccc(S(=O)(=O)C3(C(=O)NO)CCOCC3)cc2)cc1 [Example 368]	0.8	9000	> 10000	150	> 10000
Cc1ccc(C(=O)NCCCOc2ccc(S(=O)(=O)C3(C(=O)NO)CCOCC3)cc2)cc1C [Example 371]	2.4	9600	> 10000	1100	> 10000
Cc1ccc(C(=O)NCCCOc2ccc(S(=O)(=O)C3(C(=O)NO)CCOCC3)cc2)c(C)c1 [Example 373]	7	3940	> 10000	940	> 10000
O=C(NCCCOc1ccc(S(=O)(=O)C2(C(=O)NO)CCOCC2)cc1)c1cc2ccccc2cc1O [Example 376]	0.8	> 10000	> 10000	360	> 10000
O=C(NCCCOc1ccc(S(=O)(=O)C2(C(=O)NO)CCOCC2)cc1)c1cnc(Cl)c(Cl)c1 [Example 384]	0.8	2630	> 10000	176	> 10000
O=C(NCCCOc1ccc(S(=O)(=O)C2(C(=O)NO)CCOCC2)cc1)c1cccnc1 [Example 385]	3.3	> 10000	> 10000	253	4340
Cc1cc(C(=O)NCCCOc2ccc(S(=O)(=O)C3(C(=O)NO)CCOCC3)cc2)no1 [Example 386]	1.2	35.3	9720	131	> 10000
O=C(NCCCOc1ccc(S(=O)(=O)C2(C(=O)NO)CCOCC2)cc1)c1cnc2ccccc2c1 [Example 390]	2.7	> 10000	> 10000	907	> 10000
COc1ccc(C(=O)NCC(C)(C)COc2ccc(S(=O)(=O)C3(C(=O)NO)CCOCC3)cc2)cc1 [Example 392]	40	> 10000	> 10000	> 10000	> 10000
CCCC(C)C(=O)NCCCOc1ccc(S(=O)(=O)C2(C(=O)NO)CCOCC2)cc1 (stereo not shown) [Example 403]	5.2	> 10000	> 10000	454	> 10000
O=C(NCCCOc1ccc(S(=O)(=O)C2(C(=O)NO)CCOCC2)cc1)C12CC3CC(CC(C3)C1)C2 [Example 405]	1.9	> 10000	> 10000	2350	> 10000
CN(C)c1ccc(C(=O)NCCCOc2ccc(S(=O)(=O)C3(C(=O)NO)CCN(C4CC4)CC3)cc2)cc1 [Example 406]	4	> 10000	> 10000	2200	> 10000
O=C(NO)C1(S(=O)(=O)c2ccc(OCCCSc3nc4ccc(Cl)cc4o3)cc2)CCOCC1 [Example 408]	2.5	49	6810	90	> 10000
O=C(NO)C1(S(=O)(=O)c2ccc(OCCSc3nc4c(Cl)cc(Cl)cc4o3)cc2)CCOCC1 [Example 409]	1	160	5640	23	> 10000
O=C(NO)C1(S(=O)(=O)c2ccc(OCCSc3nc4ccccc4o3)cc2)CCOCC1 [Example 410]	1.1	202	515	12	4700
Cc1ccc2c(c1)CCCN2CCCCCOc1ccc(S(=O)(=O)C2(C(=O)NO)CCOCC2)cc1 [Example 415]	15	1780	> 10000	51	> 10000
COc1ccc(NC(=O)NCCOc2ccc(S(=O)(=O)C3(C(=O)NO)CCOCC3)cc2)cc1 [Example 418]	64	> 10000	> 10000	1500	> 10000
COc1ccc(C(=O)N2CCC(COc3ccc(S(=O)(=O)C4(C(=O)NO)CCOCC4)cc3)CC2)cc1 [Example 420]	4	> 10000	> 10000	67	> 10000
CC(C)(COc1ccc(S(=O)(=O)C2(C(=O)NO)CCOCC2)cc1)CSc1ccccc1 [Example 437]	90	> 10000	> 10000	> 10000	> 10000
CC(C)(COc1ccc(S(=O)(=O)C2(C(=O)NO)CCOCC2)cc1)CS(=O)(=O)Cc1ccccc1 [Example 438]	11	3800	> 10000	505	> 10000
O=C(NO)C1(S(=O)(=O)c2ccc(OCCCSCc3ccccc3)cc2)CCOCC1 [Example 439]	25	6000	> 10000	2000	> 10000
CC(C)(COc1ccc(S(=O)(=O)C2(C(=O)NO)CCOCC2)cc1)CS(=O)(=O)Cc1cccc(OC(F)(F)F)c1 [Example 440]	1	140	2500	4	> 10000
O=C(NO)C1(S(=O)(=O)c2ccc(OCCCSCc3cccc(OC(F)(F)F)c3)cc2)CCOCC1 [Example 441]	2	110	2290	13	9000
COc1ccc(OCCCOc2ccc(S(=O)(=O)C3(C(=O)NO)CCN(C4CC4)CC3)cc2)cc1 [Example 442]	1.8	5.4	997	6.2	> 10000
O=C(NO)C1(S(=O)(=O)c2ccc(OCCCOc3cccc(C(F)(F)F)c3)cc2)CCN(C2CC2)CC1 [Example 443]	3.5	375	2430	25	> 10000
O=C(NO)C1(S(=O)(=O)c2ccc(OCCCOc3ccc(F)cc3F)cc2)CCOCC1 [Example 445]	0.5	44	546	2.2	3320
COc1ccc(OCCCOc2ccc(S(=O)(=O)C3(C(=O)NO)CCOCC3)cc2)cc1 [Example 447]	2	12.2	1360	8.9	> 10000
O=C(NO)C1(S(=O)(=O)c2ccc(OCCCOc3ccc4ccccc4c3)cc2)CCOCC1 [Example 448]	2.7	116	832	9	3080
